Assay type in all cases: cell-based
The subject of experiment [1] is Primary human fibroblasts derived from IPF patients (LL29 cells). The experiment can be described thus: Inhibition of the fibrotic process: αSMA staining in TGF-β1-treated LL29 fibroblasts. Conditions: Fibroblast, 96 h, LL29 cells, TGF-β1 20 ng/mL, 4 days, % αSMA-positive cells. From the text:
Representative compounds were screened using primary human fibroblasts (derived from IFF patients) treated with TGF-β1 to determine their ability to inhibit the fibrotic process.
K. L., et.al., “RhoA signaling modulates cyclin D1 expression in human lung fibroblasts; implications for idiopathic pulmonary fibrosis”, Respiratory Research (2006), 7(1), 88] were obtained from American Type Culture Collection (ATCC) and expanded in F12 medium supplemented with 15% Fetal Bovine Serum and Penicillin/Streptomycin.
LL29 cells are plated at 1,500 cells/well in 80 μL/well F12 medium supplemented with 1% Fetal Bovine Serum. […] Wells treated with TGF-β1 and containing DMSO were used as controls. […] Following incubation for 4 days, SYTOX green nucleic acid stain (Life Technologies [Thermo Fisher Scientific]) was added to the wells at a final concentration of 1 μM and incubated at room temperature for 30 min.

The next experiment concerns IL-6 (THP-1 cells). The experiment can be described thus: IL-6 inhibition in THP-1 monocytes (HTRF). Conditions: Homo sapiens; for EC50: IL-6 inhibition, THP-1 cells, HTRF, 10-point dose-response starting from 10 μM; for inhibition at 10 µM: THP-1, read-out: percentage in parentheses printed under EC50 >10. The procedure: Compound Screening: THP-1 cells were cultured in basal media with 1% FBS for 24 hours before the start of the assay. […] THP-1 cells were plated at 5000 cells/well in the 384-well plates and incubated at 37° C. for 2 h. 500 ng/mL of […] was added after 2 hours and cells were incubated for another 22 hours at 37° C. Plates were spun in a centrifuge for 1 minute at 10,000 rpm and a mixture of anti-IL6 XL665, and anti-IL6 Cryptate diluted in reconstitution buffer (Cisbio Inc.) was added to each well. Following incubation for 3 hrs at room temperature, Homogeneous Time-Resolved Fluorescence (HTRF) was measured using the Envision (Perkin Elmer) at 665 nm and […]. The ratio of fluorescence at 665 nm to 620 nm was used as a readout for IL6 quantification. All samples were processed in duplicate. Readings were normalized to DMSO treated cells and normalized activities were utilized for EC50 calculations using the dose-response log (inhibitor) vs. response-variable slope (four parameters) nonlinear regression feature available in GraphPad Prism 5.0 (or Dotmatics).
A general note: Time-resolved FRET reads energy transfer from a long-lived donor to a nearby acceptor.

The test system of a further experiment is SW480 colon cancer cells. Put plainly: Cell viability assay (CellTiter-Blue) in SW480 colon cancer cells. Conditions: Homo sapiens; for EC50: 96 h, SW480 cell viability, four days incubation. The procedure: Representative compounds were screened using the following assay procedure to assess the effect on cell viability as described below.
Approximately 2×10^3 SW480 colon cancer cells were seeded into each well and allowed to incubate in the presence or absence of compound for four days at 37° C./5% CO2. Eight replicates of DMSO-treated cells served as controls and cells treated with compound were performed in duplicate.
After incubation, 20 μL of CellTiter-Blue (Promega) was added to each well allowed to incubate for approximately 3 hours. This reagent was a buffered solution which contains resazurin, metabolically active cells were able to reduce rezarurin (blue) into resorufin (pink) which was highly fluorescent. This measured fluorescence was used as a readout for cell viability.

The test system of experiment [2] is Wnt activity (Sp5-Luc reporter, SW480 colon carcinoma cells). Put plainly: Screening assay for Wnt activity: Sp5-Luc reporter gene assay in SW480 cells. Conditions: Homo sapiens; for EC50: SW480 Sp5-Luc reporter, overnight incubation; for inhibition at 10 µM: SW480, read-out: percent inhibition at 10 μM. From the text:
The screening assay for Wnt activity is described as follows. Reporter cell lines can be generated by stably transducing cancer cell lines (e.g., colon cancer) or primary cells (e.g., IEC-6 intestinal cells) with a lentiviral construct that includes a Wnt-responsive promoter driving expression of the firefly luciferase gene.
SW480 colon carcinoma cells were transduced with a lentiviral vector expressing luciferase with a human Sp5 promoter consisting of a sequence of eight TCF/LEF binding sites. SW480 cells stably expressing the Sp5-Luc reporter gene and a hygromycin resistance gene were selected by treatment with 150 μg/mL of hygromycin for 7 days. These stably transduced SW480 cells were expanded in cell culture and used for all further screening activities. […] For Sp5-Luc reporter gene assays, the cells were plated at 4,000 cells/well in 384-well plates with medium containing 1% fetal bovine serum and incubated overnight at 37° C. and 5% CO2. Following incubation, 20 μl of BrightGlo luminescence reagent (Promega) was added to each well of the 384-well assay plates. The plates were placed on an orbital shaker for 2 min and then luminescence was quantified using the Envision (Perkin Elmer) plate reader. Readings were normalized to DMSO only treated cells, and normalized activities were utilized for EC50 calculations using the dose-response log (inhibitor) vs. response-variable slope (four parameters) nonlinear regression feature available in GraphPad Prism 5.0 (or Dotmatics).

A value given as a limit tells only on which side of the number the result lay.

By EC50 is commonly meant the concentration giving half of the maximal effect. Lower therefore signals a more potent agent. For `Fc1cccc(-c2cncc3[nH]c(-c4n[nH]c5ccc(-c6cccnc6)cc45)cc23)c1` [Compound 4, 3-(4-(3-Fluorophenyl)-1H-pyrrolo[2,3-c]pyridin-2-yl)-5-(pyridin-3-yl)-1H-indazole], the EC50 in experiment [1] was found to be 1630 nM; in the experiment on IL-6 (THP-1 cells), 783 nM; with SW480 colon cancer cells it was 1380 nM; in experiment [2], 395 nM.

Turning to `CCCC(=O)Nc1cncc(-c2ccc3[nH]nc(-c4cc5c(-c6cccc(F)c6)cncc5[nH]4)c3c2)c1` [Compound 17, N-(5-(3-(4-(3-Fluorophenyl)-1H-pyrrolo[2,3-c]pyridin-2-yl)-1H-indazol-5-yl)pyridin-3-yl)butyramide], the EC50 in experiment [1] was 254 nM; in the experiment with IL-6 (THP-1 cells), 87 nM; in the experiment on SW480 colon cancer cells it was 282 nM; in experiment [2] it was 200 nM.

For `Fc1cccc(-c2cncc3[nH]c(-c4n[nH]c5ccc(-c6ccncc6)cc45)cc23)c1` [Compound 18, 3-(4-(3-Fluorophenyl)-1H-pyrrolo[2,3-c]pyridin-2-yl)-5-(pyridin-4-yl)-1H-indazole], the EC50 is 973 nM in experiment [1], over 10000 nM with IL-6 (THP-1 cells), 988 nM in the experiment on SW480 colon cancer cells and 2110 nM in experiment [2]. Also, the inhibition at 10 µM in the experiment with IL-6 (THP-1 cells) is 54.3%.

In the case of `O=C(Nc1cncc(-c2ccc3[nH]nc(-c4cc5c(-c6cccc(F)c6)cncc5[nH]4)c3c2)c1)C1CCCCC1` [Compound 23, N-(5-(3-(4-(3-Fluorophenyl)-1H-pyrrolo[2,3-c]pyridin-2-yl)-1H-indazol-5-yl)pyridin-3-yl)cyclohexanecarboxamide], the EC50 in experiment [1] turned out to be 193 nM; in the experiment with IL-6 (THP-1 cells), 108 nM; with SW480 colon cancer cells it was 513 nM; in experiment [2] it was 620 nM.

`CC(C)(C)C(=O)Nc1cncc(-c2ccc3[nH]nc(-c4cc5c(-c6ccc(F)cc6)cncc5[nH]4)c3c2)c1` [Compound 36, N-(5-(3-(4-(4-Fluorophenyl)-1H-pyrrolo[2,3-c]pyridin-2-yl)-1H-indazol-5-yl)pyridin-3-yl)pivalamide]: the EC50 in experiment [1] amounted to 1090 nM; in the experiment with IL-6 (THP-1 cells), 6910 nM; in the experiment on SW480 colon cancer cells, 702 nM; in experiment [2], 680 nM.

In the case of `CN(C)Cc1cncc(-c2ccc3[nH]nc(-c4cc5c(-c6ccc(F)cc6)cncc5[nH]4)c3c2)c1` [Compound 41, 1-(5-(3-(4-(4-Fluorophenyl)-1H-pyrrolo[2,3-c]pyridin-2-yl)-1H-indazol-5-yl)pyridin-3-yl)-N,N-dimethylmethanamine], the EC50 in experiment [1] came to 1190 nM; with IL-6 (THP-1 cells) it was 7050 nM; in the experiment on SW480 colon cancer cells, 1170 nM; in experiment [2], 3080 nM.

As to `CCCC(=O)Nc1cncc(-c2ccc3[nH]nc(-c4cc5c(-c6ccc(F)cc6)cncc5[nH]4)c3c2)c1` [Compound 45, N-(5-(3-(4-(4-Fluorophenyl)-1H-pyrrolo[2,3-c]pyridin-2-yl)-1H-indazol-5-yl)pyridin-3-yl)butyramide], the 50% effective concentration (EC50) amounted to 290 nM in experiment [1], 349 nM with IL-6 (THP-1 cells), 1010 nM with SW480 colon cancer cells and 1510 nM in experiment [2].

In the case of `O=C(Nc1cncc(-c2ccc3[nH]nc(-c4cc5c(-c6ccc(F)cc6)cncc5[nH]4)c3c2)c1)C1CCC1` [Compound 49, N-(5-(3-(4-(4-Fluorophenyl)-1H-pyrrolo[2,3-c]pyridin-2-yl)-1H-indazol-5-yl)pyridin-3-yl)cyclobutanecarboxamide], the EC50 in experiment [1] was 135 nM; in the experiment on IL-6 (THP-1 cells), 171 nM; with SW480 colon cancer cells, 302 nM; in experiment [2], 240 nM.

With `CC(C)C(=O)Nc1cncc(-c2ccc3[nH]nc(-c4cc5c(-c6ccccc6F)cncc5[nH]4)c3c2)c1` [Compound 65, N-(5-(3-(4-(2-Fluorophenyl)-1H-pyrrolo[2,3-c]pyridin-2-yl)-1H-indazol-5-yl)pyridin-3-yl)isobutyramide], the EC50 in experiment [1] is 1250 nM; in the experiment with IL-6 (THP-1 cells), 263 nM; with SW480 colon cancer cells, 812 nM; in experiment [2] it was 626 nM.

Turning to `Fc1ccccc1-c1cncc2[nH]c(-c3n[nH]c4ccc(-c5cncc(CN6CCCCC6)c5)cc34)cc12` [Compound 71, 3-(4-(2-Fluorophenyl)-1H-pyrrolo[2,3-c]pyridin-2-yl)-5-(5-(piperidin-1-ylmethyl)pyridin-3-yl)-1H-indazole], the EC50 was 2310 nM in experiment [1], 3300 nM in the experiment with IL-6 (THP-1 cells), 3420 nM with SW480 colon cancer cells and 4260 nM in experiment [2].

In the case of `CC(C)(C)CC(=O)Nc1cncc(-c2ccc3[nH]nc(-c4cc5c(-c6ccccc6F)cncc5[nH]4)c3c2)c1` [Compound 72, N-(5-(3-(4-(2-Fluorophenyl)-1H-pyrrolo[2,3-c]pyridin-2-yl)-1H-indazol-5-yl)pyridin-3-yl)-3,3-dimethylbutanamide], the EC50 in experiment [1] came out at 593 nM; in the experiment with IL-6 (THP-1 cells) it was 1100 nM; in the experiment with SW480 colon cancer cells, 693 nM; in experiment [2] it was 730 nM.

Regarding `CCCCC(=O)Nc1cncc(-c2ccc3[nH]nc(-c4cc5c(-c6ccccc6F)cncc5[nH]4)c3c2)c1` [Compound 75], the EC50 in experiment [1] is 1160 nM; with IL-6 (THP-1 cells), over 10000 nM; with SW480 colon cancer cells, 1180 nM; in experiment [2] it was 1760 nM. For the same compound, the inhibition at 10 µM in the experiment with IL-6 (THP-1 cells) was found to be 39.1%.

Take `O=C(Nc1cncc(-c2ccc3[nH]nc(-c4cc5c(-c6ccccc6F)cncc5[nH]4)c3c2)c1)C1CCCC1` [Compound 78, N-(5-(3-(4-(2-Fluorophenyl)-1H-pyrrolo[2,3-c]pyridin-2-yl)-1H-indazol-5-yl)pyridin-3-yl)cyclopentanecarboxamide]: the EC50 in experiment [1] is 1410 nM; in the experiment on IL-6 (THP-1 cells), 6420 nM; with SW480 colon cancer cells it was 1220 nM; in experiment [2], 1240 nM.

Consider `Fc1ccccc1-c1cncc2[nH]c(-c3n[nH]c4ccc(-c5cncc(CN6CCC(F)(F)C6)c5)cc34)cc12` [Compound 82, 5-(5-((3,3-Difluoropyrrolidin-1-yl)methyl)pyridin-3-yl)-3-(4-(2-fluorophenyl)-1H-pyrrolo[2,3-c]pyridin-2-yl)-1H-indazole], for which the EC50 in experiment [1] was 648 nM; in the experiment on IL-6 (THP-1 cells), 796 nM; with SW480 colon cancer cells, 923 nM; in experiment [2], 630 nM.

Turning to `Fc1ccccc1-c1cncc2[nH]c(-c3n[nH]c4ccc(-c5ccccn5)cc34)cc12` [Compound 84, 3-(4-(2-Fluorophenyl)-1H-pyrrolo[2,3-c]pyridin-2-yl)-5-(pyridin-2-yl)-1H-indazole], the EC50 was 1910 nM in experiment [1], 6480 nM in the experiment on IL-6 (THP-1 cells), 2160 nM in the experiment with SW480 colon cancer cells and over 10000 nM in experiment [2]. In addition, the inhibition at 10 µM in experiment [2] came out at 45.9%.

Take `O=C(Cc1ccccc1)Nc1cncc(-c2ccc3[nH]nc(-c4cc5c(-c6ccncc6)cncc5[nH]4)c3c2)c1` [Compound 122]: the EC50 was 1470 nM in experiment [1], over 10000 nM in the experiment on IL-6 (THP-1 cells), over 10000 nM in the experiment with SW480 colon cancer cells and over 10000 nM in experiment [2]. Moreover, the inhibition at 10 µM was found to be 47.8% in the experiment with IL-6 (THP-1 cells); 8.6% in the experiment on SW480 colon cancer cells (SW480, read-out: percent inhibition at 10 μM); 21% in experiment [2].

Values taken from patent US20180228780A1, “3-(1H-PYRROLO[2,3-C]PYRIDIN-2-YL)-1H-INDAZOLES AND THERAPEUTIC USES THEREOF” (Samumed, LLC, priority 2015, published 2018).
